Experimental data published in patent US6288091A, “Antiherpes virus compounds and methods for their preparation and use” (Boehringer Ingelheim Ltd., priority 1999, dated 2001).

Columns and labels:
HCMV (strain AD169) = assay: Inhibition of HCMV replication, ELISA assay (Hs-68 cells); type: cell-based, Human Cytomegalovirus (HCMV); details: Human betaherpesvirus 5, AD169, Hs68, Group 1 Table 1 entries, read-out: ELISA CMV EC50
How it was run: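 EC50 derived from % inhibition of viral replication, read as p28 late-protein ELISA signal (mAb UL99, peroxidase/OPD, 450 nm) on fixed cells. Read-out came 8 days post-infection at 37 °C in DMEM with 5% FBS plus compound, after 2 h adsorption of AD169 at MOI 0.01 PFU/cell onto near-confluent Hs-68 cells.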

HSV-1 strain F or KOS = assay: Inhibition of herpes simplex virus (HSV-1) replication in cell culture (BHK-21 cells, glycoprotein C ELISA); type: cell-based; details: Human alphaherpesvirus 1, BHK-21, Group 1 Table 1 entries
How it was run: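 Replication readout: ELISA for HSV-1 late glycoprotein C (mAb C11, peroxidase-OPD, 450 nm) on glutaraldehyde-fixed cells. Monolayers (~50,000 cells/well) were infected with strain F or KOS (MOI 0.05 PFU/cell), then incubated 24 h at 37° with compound in 2% FBS α-MEM. EC50 derived from % inhibition.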

`C[C@@H](c1ccccc1)N(CC(=O)Nc1ccc(-c2csc(N)n2)cc1)C(=O)c1ccncc1` [Example 58] was tested, and the EC50 (HCMV (strain AD169)) was 5200 nM and the EC50 (HSV-1 strain F or KOS) was 40 nM.
With `Nc1nc(-c2ccc(NC(=O)CN(CC3CCCCC3)C(=O)c3ccccc3)cc2)cs1` [Example 60] the EC50 (HCMV (strain AD169)) was 3000 nM and the EC50 (HSV-1 strain F or KOS) was 540 nM.
`Nc1nc(-c2ccc(NC(=O)CN(CC3CCCCC3)C(=O)C3CCNCC3)cc2)cs1` [Example 62] gave an EC50 (HCMV (strain AD169)) of 2200 nM and an EC50 (HSV-1 strain F or KOS) of 5500 nM.
With `Nc1nc(-c2ccc(NC(=O)CN(CC3CCCCC3)C(=O)C3CCCC3)cc2)cs1` [Example 63] the EC50 (HCMV (strain AD169)) was 2200 nM and the EC50 (HSV-1 strain F or KOS) was 250 nM.
`Nc1nc(-c2ccc(NC(=O)CN(CCc3ccccc3)C(=O)C3CCCC3)cc2)cs1` [Example 66] showed an EC50 (HCMV (strain AD169)) of 350 nM and an EC50 (HSV-1 strain F or KOS) of 90 nM.
`CC(C)(C)OC(=O)NCC(=O)N(CC(=O)Nc1ccc(-c2csc(N)n2)cc1)Cc1ccccc1` [Example 72] was tested, and the EC50 (HCMV (strain AD169)) was 7500 nM and the EC50 (HSV-1 strain F or KOS) was 670 nM.
Molecule `Nc1nc(-c2ccc(NC(=O)CN(CC3CCCCC3)C(=O)Cc3ccccc3)cc2)cs1` [Example 77] has an EC50 (HCMV (strain AD169)) of 6100 nM and an EC50 (HSV-1 strain F or KOS) of 190 nM.
Molecule `Nc1nc(-c2ccc(NC(=O)CN(CCc3ccccn3)C(=O)C3CCCC3)cc2)cs1` [Example 79] has an EC50 (HCMV (strain AD169)) of 3800 nM and an EC50 (HSV-1 strain F or KOS) of 160 nM.
In the case of `CC(C)(C)CN(CC(=O)Nc1ccc(-c2csc(N)n2)cc1)C(=O)C1CCCCC1` [Example 80], the EC50 (HCMV (strain AD169)) is reported as 9500 nM and the EC50 (HSV-1 strain F or KOS) is reported as 310 nM.
Molecule `CCCC(CCC)N(CC(=O)Nc1ccc(-c2csc(N)n2)cc1)C(=O)C1CCCCC1` [Example 82] has an EC50 (HCMV (strain AD169)) of 8100 nM and an EC50 (HSV-1 strain F or KOS) of 60 nM.
`Nc1nc(-c2ccc(NC(=O)CN(Cc3ccc(F)cc3)C(=O)c3ccncc3)cc2)cs1` [Example 84] gave an EC50 (HCMV (strain AD169)) of 5600 nM and an EC50 (HSV-1 strain F or KOS) of 140 nM.
In the case of `CC(C)(C)OC(=O)N(CC(=O)Nc1ccc(-c2csc(N)n2)cc1)Cc1ccccc1` [Example 85], the EC50 (HCMV (strain AD169)) is reported as 600 nM and the EC50 (HSV-1 strain F or KOS) is reported as 10 nM.
For `C[C@@H](c1ccccc1)N(CC(=O)Nc1ccc(-c2csc(N)n2)cc1)C(=O)OC(C)(C)C` [Example 89], the EC50 (HCMV (strain AD169)) was 900 nM and the EC50 (HSV-1 strain F or KOS) was 36 nM.
For `CC(C)(C)OC(=O)N(CC(=O)Nc1ccc(-c2csc(N)n2)cc1)Cc1ccncc1` [Example 90], the EC50 (HCMV (strain AD169)) was 3500 nM and the EC50 (HSV-1 strain F or KOS) was 15 nM.
`CC(C)(C)NC(=S)N(CC(=O)Nc1ccc(-c2csc(N)n2)cc1)Cc1ccccc1` [Example 93] gave an EC50 (HCMV (strain AD169)) of 250 nM and an EC50 (HSV-1 strain F or KOS) of 120 nM.
For `Nc1nc(-c2ccc(NC(=O)CN(Cc3ccccc3)S(=O)(=O)c3ccccc3)cc2)cs1` [Example 97], the EC50 (HCMV (strain AD169)) was > 5000 nM and the EC50 (HSV-1 strain F or KOS) was 130 nM.
With `CCC(CC)C(=O)N(CC(=O)Nc1ccc(-c2csc(N)n2)cc1)Cc1ccccc1` [Example 104] the EC50 (HCMV (strain AD169)) was 1900 nM and the EC50 (HSV-1 strain F or KOS) was 16 nM.
`CN(C)CCN(CC(=O)Nc1ccc(-c2csc(N)n2)cc1)C(=O)C1CCCCC1` [Example 140] showed an EC50 (HCMV (strain AD169)) of 1400 nM and an EC50 (HSV-1 strain F or KOS) of 9200 nM.
